Structures can show the parent of a compound that is named as a salt.

The record followed here is US7504412B2, “Imidazopyridine derivatives” (Banyu Pharmaceuticals, Co., Ltd., priority 2003, dated 2009).

For one assay, the target named is T1, human MCH-1R (Homo sapiens, UniProt Q99705).
T1 construct: expressed in transfected cells; host or cells: CHO-K1 (American Type Culture Collection), membrane samples
T1 sequence (Q99705 whole entry): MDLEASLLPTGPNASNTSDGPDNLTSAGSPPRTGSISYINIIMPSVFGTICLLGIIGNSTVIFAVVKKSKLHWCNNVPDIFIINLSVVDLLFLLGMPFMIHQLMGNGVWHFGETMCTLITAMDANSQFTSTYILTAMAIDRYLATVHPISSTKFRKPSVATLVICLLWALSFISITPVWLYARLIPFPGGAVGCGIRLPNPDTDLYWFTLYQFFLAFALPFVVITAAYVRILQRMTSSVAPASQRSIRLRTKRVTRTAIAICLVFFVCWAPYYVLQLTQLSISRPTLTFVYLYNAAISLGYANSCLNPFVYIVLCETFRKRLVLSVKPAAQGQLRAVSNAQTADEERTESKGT
The assay is described as follows: MCH binding inhibition test. Particulars: membrane samples from MCH-1R expression CHO-K1 cells, 50 pM [125I]MCH, 25° C., one hour; read-out: IC50 (50% inhibition concentration to specific [125I]MCH binding). Here is the method: A human MCH-1R encoding cDNA sequence [FEBS Letters, 398, 253 (1996); Biochimica et Biophisica Acta, 1401, 216 (1998)] was cloned to plasmid vector pEF/mic/cyto (Invitrogen Corporation). The obtained expression vector was transfected to a host cell CHO-K1 (American Type Culture Collection) using lipofectamine plus reagent (Life Technology Inc.) to provide MCH-1R expression cells.
Membrane samples prepared from the MCH-1R expression cells were incubated with each test compound and 50 pM of [^125I]MCH (NEN Co.), in an assay buffer (50 mM Tris buffer comprising 10 mM magnesium chloride, 2 mM ethylenediamine tetraacetate, 0.01% bacitracin and 0.2% bovine serum albumin; pH 7.4) at 25° C. for an hour, followed by filtration through Glass Filter GF/C (Wattman Co.). After washing the glass filter with 50 mM Tris buffer (pH7.4) comprising 10 mM magnesium chloride, 2 mM ethylenediamine tetraacetate and 0.04% Tween-20, radio activity on the glass filter was measured. Non-specific binding was measured in the presence of 1 μM human MCH and 50% inhibition concentration (IC50 value) of each test compound to specific [^125I] MCH binding was determined.
As to `CC(C)c1cn2cc(NC(=O)c3ccc(-c4ccc(F)cc4)cc3)ccc2n1` [Example 2, 4′-Fluoro-N-(2-isopropylimidazo[1,2-a]pyridin-6-yl)[1,1′-biphenyl]-4-carboxamide], the IC50 came to 3.1 nM.
The same measure, in the same setting: to `Cc1c(C2CC2)nc2ccc(NC(=O)c3ccc(-c4ccc(F)cc4)cn3)cn12` [Example 14, N-(2-cyclopropyl-3-methylimidazo[1,2-a]pyridin-6-yl)-5-(4-fluorophenyl)-2-pyridinecarboxamide hydrochloride] belongs 2 nM.
On the same count and under the same terms, to `Cc1c(C2CC2)nc2ccc(NC(=O)c3ccc(-c4ccccn4)cc3)cn12` [Example 17, N-(2-cyclopropyl-3-methylimidazo[1,2-a]pyridin-6-yl)-4-(2-pyridyl)benzamide hydrochloride] belongs 3.3 nM.
The same measure, in the same setting: for `Cc1c(C2CC2)nc2ccc(NC(=O)CCc3ccc(C(F)(F)F)cc3)cn12` [Example 18, N-(2-cyclopropyl-3-methylimidazo[1,2-a]pyridin-6-yl)-3-[4-(trifluoromethyl)phenyl]propanamide] the value was 4.3 nM; for `Cc1c(C(C)(C)O)nc2ccc(NC(=O)c3ccc(-c4ccc(C(F)(F)F)cn4)cc3)cn12` [Example 32, N-[2-(1-hydroxy-1-methylethyl)-3-methylimidazo[1,2-a]-pyridin-6-yl]-4-[5-(trifluoromethyl)-2-pyridyl]benzamide], 9.5 nM.
Consider `O=C(Nc1ccc2nc(C3CC3)c(CO)n2c1)c1ccc(-c2ccc(C(F)(F)F)cc2)cc1` [Example 36, N-[2-cyclopropyl-3-(hydroxymethyl)imidazo[1,2-a]pyridin-6-yl]-4′-(trifluoromethyl)[1,1′-biphenyl]-4-carboxamide], for which the IC50 turned out to be 10.5 nM.

For a further assay, the system named is MCH-induced feeding behavior. The assay is described as follows: Antagonism test to MCH-induced feeding behavior. The note with it: male SD rats satiated with high fat diet; 10 or 30 mg/kg oral, one hour before MCH 5 μg/head into third ventricle. The class given is in vivo, rat. On the procedure: Ketamine-xylazine anesthetized (74 and 11 mg/kg single intraperitoneal administration) male SD rats (9-12 weeks old) were inserted with chronic guide cannule (26 gauge) into their third ventricle as fixed at a set cerebral location with dental resin. The position of the front end of the guide cannula was set to be 2.2 mm behind the bregma on median line and at a depth of 8 mm from the cranial surface. After two weeks' recovery term, the rats were fed with high fat diet for about 4 hours to satiation. Thereafter a needle (33 gauge) which was connected to a microsyringe was inserted into the guide cannula and through which melanin concentrating hormone (MCH, 5 μg/1 μL/head, as dissolved in artificial liquor cerebrospinalis) was administered into each rat's third ventricle. The compound of Example 17 (10 or 30 mg/kg) as suspended in 0.5% aqueous methylcellulose solution was orally administered to the rats an hour before the MCH administration. The rats were successively fed with high fat diet, and their feed intake during the two hours following the MCH administration was measured.
In this test, the feed intake in the case where MCH and artificial liquor cerebrospinalis (aCSF) alone was administered in place of the compound of the present invention was used as the reference.
In the case of `Cc1c(C2CC2)nc2ccc(NC(=O)c3ccc(-c4ccccn4)cc3)cn12` [Example 17, N-(2-cyclopropyl-3-methylimidazo[1,2-a]pyridin-6-yl)-4-(2-pyridyl)benzamide hydrochloride], the “feed intake during the two hours following MCH administration” value is “dose-dependently inhibited increase in the amount of feed intake induced by the MCH”.
